Results published in patent publication US20080015181A1, “Pharmaceutical Compositions Comprising Droxidopa” (Chelsea Therapeutics, Inc., priority 2006, published 2008).

Columns and labels:
[1] = compound co-administered with droxidopa, relative to droxidopa alone; rat
Description: The pharmacokinetic properties of droxidopa combinations according to the invention were evaluated in male Sprague Dawley rats. Four test groups with four rats in each group were established. Group 1 was administered droxidopa alone as a baseline group. Group 2 was administered droxidopa in combination with the COMT inhibitor entacapone. Group 3 was administered droxidopa in combination with the cholinesterase inhibitor pyridostigmine. Group 4 was administered droxidopa in combination with the MAOI nialamide. For each group, the droxidopa or droxidopa combination was formulated with a vehicle formed of a water solution containing 1% carboxymethylcellulose with 0.2% TWEEN® 80 emulsifier.
Rats in each group were given a single gavage dose of droxidopa alone or the droxidopa combination, the time of dosing being recorded as time=0. Dosing was based upon the weight of the subject and was adjusted to provide all test subjects a droxidopa dose of approximately 100 mg per kg of body weight. […]
As a standard, plasma droxidopa concentration in rats administered the drug vehicle with no droxidopa or droxidopa combinations present was also evaluated, and no droxidopa was detected over a 24 hour period in plasma from the rats administered the vehicle alone. Likewise, no droxidopa was detected in any subjects prior to dosing of the droxidopa or droxidopa combinations. […]

plasma norepinephrine = experiment: Plasma norepinephrine concentration after dosing of droxidopa or droxidopa combinations in rats; assay type: in vivo, male Sprague Dawley rats; settings: 2 hours post-dosing, rat
Description: The pharmacokinetic properties of droxidopa combinations according to the invention were evaluated in male Sprague Dawley rats. Four test groups with four rats in each group were established. Group 1 was administered droxidopa alone as a baseline group. Group 2 was administered droxidopa in combination with the COMT inhibitor entacapone. Group 3 was administered droxidopa in combination with the cholinesterase inhibitor pyridostigmine. Group 4 was administered droxidopa in combination with the MAOI nialamide. For each group, the droxidopa or droxidopa combination was formulated with a vehicle formed of a water solution containing 1% carboxymethylcellulose with 0.2% TWEEN® 80 emulsifier. […] The amounts of entacapone, pyridostigmine, and nialamide used in formulations 2-7 were provided as “low” doses and “high” doses based upon disclosure in the literature of generally accepted dosage ranges for their respective known indications.
Rats in each group were given a single gavage dose of droxidopa alone or the droxidopa combination, the time of dosing being recorded as time=0. Dosing was based upon the weight of the subject and was adjusted to provide all test subjects a droxidopa dose of approximately 100 mg per kg of body weight. Blood samples (approximately 100 μL) were collected at approximately 5, 15, and 30 minutes, and at approximately 1, 2, 4, 8, and 24 hours after dosing. […]

MAO-A than MAO-B = settings: known; cited from earlier work

CN(C)C(=O)Oc1ccc[n+](C)c1 [pyridostigmine, 3-dimethylcarbamoyloxy-1-methylpyridinium]
effect on droxidopa half-life (in words) [1]: increase in droxidopa half-life

NC(C(=O)O)C(O)c1ccc(O)c(O)c1 (stereo not drawn) [droxidopa, threo-3-(3,4-dihydroxyphenyl)serine]
increase in plasma norepinephrine concentration (plasma norepinephrine; droxidopa alone versus vehicle alone): ~5 fold

CCN(CC)C(=O)/C(C#N)=C/c1cc(O)c(O)c([N+](=O)[O-])c1 [entacapone, [(E)-2-cyano-N,N-diethyl-3-(3,4-dihydroxy-5-nitrophenyl)propenamide]]
plasma norepinephrine concentration in relation to treatment with droxidopa alone (in words) (plasma norepinephrine; compound combined with droxidopa): increased plasma norepinephrine concentration beyond the effect of droxidopa alone

O=C(NCCN1CCOCC1)c1ccc(Cl)cc1 [moclobemide]
selectivity for MAO-A than MAO-B (MAO-A than MAO-B): approximately three times more selective for MAO-A than MAO-B
